The text below walks through data of ChEMBL document CHEMBL5608195, “Identification and biological evaluation of fused tetrahydroisoquinoline derivatives as Wnt/β-catenin signaling inhibitors to suppress colorectal cancer” (Eur J Med Chem, 2024).

Structures are written as SMILES.

Assay [1] concerns HCT-116. Description: Antiproliferative activity against human HCT-116 cells assessed as inhibition rate at 20 uM incubated for 24 hrs by MTT assay relative to control. It is filed as functional. For orientation: Formazan colour is commonly taken as a measure of viable cells.
The test system of assay [2] is HCT-116. In words: Antiproliferative activity against human HCT-116 cells incubated for 24 hrs by MTT assay. The assay is classed as functional, cell-based. The conditions noted are these: HCT-116, 24 h.
A further assay has as its system RKO. Description: Antiproliferative activity against human RKO cells incubated for 24 hrs by MTT assay. It is filed as functional, cell-based.

One may read the inhibition as the drop in the measured response relative to a control, in per cent. On to `Cc1ccc2[nH]c3c(c2c1)CCN1CCc2cc(Cl)ccc2C31C` (stereo not drawn), for which the inhibition at 20 µM in the assay on HCT-116 [1] came out at 22.8%.
In the case of `CC12c3ccc(F)cc3CCN1CCc1c2[nH]c2ccc(Cl)cc12` (stereo not drawn), the inhibition at 20 µM with HCT-116 [1] stood at 88.7%.
Still for that read-out and setting: the same measure for `CC12c3ccc(Cl)cc3CC(=O)N1CCc1c2[nH]c2ccc(Cl)cc12` (stereo not drawn): 70.3%.
On the same count and under the same terms, the same measure for `Cc1ccc2[nH]c3c(c2c1)CCN1Cc2ccccc2C31C` (stereo not drawn): 43.9%.
On the same count and under the same terms, the value for `C[C@]12c3ccc(Cl)cc3CCN1CCc1c2[nH]c2ccc(Cl)cc12` was 81%.
As for `CC12c3ccc(Cl)cc3CCN1CCc1c2[nH]c2ccc(Br)cc12` (stereo not drawn), the inhibition at 20 µM in the assay on HCT-116 [1] worked out at 3.6%.
What is called IC50 is the concentration at which inhibition is half-maximal. Turning to `Cc1ccc2c(c1)CCN1CCc3c([nH]c4ccc(Cl)cc34)C21C` (stereo not drawn), the IC50 with HCT-116 [2] was 6.36 µM; with RKO, 6.48 µM. Besides, in the assay on HCT-116 [1], the inhibition at 20 µM is 88.3%.
In the case of `CC12c3cc(O)ccc3CN1CCc1c2[nH]c2ccc(Cl)cc12` (stereo not drawn), the inhibition at 20 µM in the assay with HCT-116 [1] was found to be 26.9%.
Consider `CC12c3cc(F)ccc3CCN1CCc1c2[nH]c2ccc(Cl)cc12` (stereo not drawn), for which the inhibition at 20 µM with HCT-116 [1] came out at 80.7%.
The same measure, in the same setting: the value for `CC12c3cc(F)ccc3CC(=O)N1CCc1c2[nH]c2ccc(Cl)cc12` (stereo not drawn) was 49%.
Regarding `Cc1ccc2c(c1)C1(C)c3[nH]c4ccc(Cl)cc4c3CCN1CC2` (stereo not drawn), the IC50 was 7.52 µM with HCT-116 [2] and 7.28 µM with RKO. In addition, the inhibition at 20 µM with HCT-116 [1] was found to be 92.1%.
Turning to `CC12c3ccccc3CC(=O)N1CCc1c2[nH]c2ccccc12` (stereo not drawn), in the assay with HCT-116 [1], the inhibition at 20 µM is 65.2%.
For `CC12c3ccccc3CCN1CCc1c2[nH]c2ccc(OCc3ccccc3)cc12` (stereo not drawn), the inhibition at 20 µM in the assay on HCT-116 [1] came to 20.4%.
On the same count and under the same terms, the same measure for `CC12c3ccccc3CCN1CCc1c2[nH]c2ccc(Br)cc12` (stereo not drawn): 3.6%; for `COc1ccc2[nH]c3c(c2c1)CCN1CCc2ccccc2C31C` (stereo not drawn): 10.9%; for `CC12c3ccccc3CN1CCc1c2[nH]c2ccc(Cl)cc12` (stereo not drawn): 43.8%.
Still for that read-out and setting: the same measure for `COc1ccc2c(c1)C1(C)c3[nH]c4ccc(Cl)cc4c3CCN1CC2` (stereo not drawn): 77%; for `COc1ccc2[nH]c3c(c2c1)CCN1Cc2ccccc2C31C` (stereo not drawn): 28.9%; for `Cc1ccc2[nH]c3c(c2c1)CCN1CCc2ccccc2C31C` (stereo not drawn): 59.5%.
In the case of `CC12c3ccc(Cl)cc3CCN1CCc1c2[nH]c2ccc(F)cc12` (stereo not drawn), in the assay with HCT-116 [1], the inhibition at 20 µM is 18.4%.
Still for that read-out and setting: the same measure for `CC12c3ccccc3CCN1CCc1c2[nH]c2ccc(Cl)cc12` (stereo not drawn): 83.7%; for `Cc1ccc2c(c1)C1(C)c3[nH]c4ccc(Cl)cc4c3CCN1C2` (stereo not drawn): 64.6%; for `C[C@@]12c3ccc(Cl)cc3CCN1CCc1c2[nH]c2ccc(Cl)cc12`: 84%.
With `COc1ccc2[nH]c3c(c2c1)CCN1CCc2cc(Cl)ccc2C31C` (stereo not drawn), in the assay on HCT-116 [1], the inhibition at 20 µM was 66.7%.
In the case of `CC12c3cc(Cl)ccc3CCN1CCc1c2[nH]c2ccc(Cl)cc12` (stereo not drawn), the IC50 with HCT-116 [2] amounted to 6.77 µM; in the assay on RKO, 6.84 µM. For the same molecule, in the assay on HCT-116 [1], the inhibition at 20 µM stood at 89.1%.
As for `CC12c3ccccc3CCN1CCc1c2[nH]c2ccc(F)cc12` (stereo not drawn), in the assay with HCT-116 [1], the inhibition at 20 µM was 7.8%.
The same measure, in the same setting: the value for `Cc1ccc2c(c1)C1(C)c3[nH]c4ccccc4c3CCN1C2` (stereo not drawn) was 36%.
